In brackets after ≈: the same amount, converted by molar mass. Activity calls are given as the source filed them. No cut-off for these calls is given here.
Assays:
[1] = system: Bacillus anthracis; assay: Antimicrobial activity against Bacillus anthracis A0248 by broth microdilution method; assay type: functional
[2] = system: Bacillus anthracis; assay: Antimicrobial activity against Bacillus anthracis Sterne 402 harboring gyrA Ser85Leu mutant gene by broth microdilution method; assay type: functional, Bacillus anthracis str. Sterne
[3] = system: Bacillus anthracis; assay: Antimicrobial activity against Bacillus anthracis A0462 by broth microdilution method; assay type: functional
[4] = system: Bacillus anthracis; assay: Antimicrobial activity against Bacillus anthracis Sterne 411A2 harboring GyrA Ser85Leu and parC Ser81Phe mutant gene by broth microdilution method; assay type: functional, Bacillus anthracis str. Sterne
[5] = system: Bacillus anthracis; assay: Antimicrobial activity against Bacillus anthracis Sterne 411A2 assessed as growth inhibition at 16 ug/ml after 4 hrs relative to control; assay type: functional, organism-based; details: Bacillus anthracis str. Sterne
[6] = system: Bacillus anthracis; assay: Antimicrobial activity against Bacillus anthracis A0193 by broth microdilution method; assay type: functional
[7] = system: Bacillus anthracis; assay: Antimicrobial activity against Bacillus anthracis A0465 by broth microdilution method; assay type: functional
[8] = system: Bacillus anthracis; assay: Antimicrobial activity against Bacillus anthracis A03768 by broth microdilution method; assay type: functional
[9] = system: Bacillus anthracis; assay: Antimicrobial activity against tetracycline-nonsusceptible Bacillus anthracis Sterne S1028 by broth microdilution method; assay type: functional, Bacillus anthracis str. Sterne
[10] = system: Bacillus anthracis; assay: Antimicrobial activity against pXO1-positive and pXO2 negative Bacillus anthracis 34F2 by broth microdilution method; assay type: functional
[11] = system: Bacillus anthracis; assay: Antimicrobial activity against Bacillus anthracis A0188 by broth microdilution method; assay type: functional
[12] = system: Bacillus anthracis; assay: Antimicrobial activity against Bacillus anthracis A0102 by broth microdilution method; assay type: functional
[13] = system: Bacillus anthracis; assay: Antimicrobial activity against Bacillus anthracis A0488 by broth microdilution method; assay type: functional
[14] = system: Bacillus anthracis; assay: Antimicrobial activity against Bacillus anthracis A0293 by broth microdilution method; assay type: functional
[15] = system: Bacillus anthracis; assay: Antimicrobial activity against Bacillus anthracis A0264 by broth microdilution method; assay type: functional
[16] = system: Bacillus anthracis; assay: Antimicrobial activity against Bacillus anthracis 240 by broth microdilution method; assay type: functional
[17] = system: Bacillus anthracis; assay: Antimicrobial activity against Bacillus anthracis A0149 by broth microdilution method; assay type: functional
[18] = system: Bacillus anthracis; assay: Antimicrobial activity against Bacillus anthracis A0419 by broth microdilution method; assay type: functional

Row | SMILES | MIC [1] | MIC [2] | MIC [3] | MIC [4] | inhibition [5] | MIC [6] | MIC [7] | MIC [8] | MIC [9] | MIC [10] | MIC [11] | MIC [12] | MIC [13] | MIC [14] | MIC [15] | MIC [16] | MIC [17] | MIC [18]
1 | O=C(O)c1cn(C2CC2)c2cc(N3CCNCC3)c(F)cc2c1=O [CIPROFLOXACIN] | 0.12 µg/mL (≈ 0.362 µM) | 1 µg/mL (≈ 3.02 µM) | 0.12 µg/mL (≈ 0.362 µM) | >16 µg/mL | inactive | 0.015 µg/mL (≈ 0.0453 µM) | 0.03 µg/mL (≈ 0.0905 µM) | 0.12 µg/mL (≈ 0.362 µM) | – | – | – | – | – | – | – | – | – | –
2 | C[C@H]1c2cccc(O)c2C(=O)C2=C(O)[C@]3(O)C(=O)C(C(N)=O)=C(O)[C@@H](N(C)C)[C@@H]3[C@@H](O)[C@@H]21.O [DOXYCYCLINE] | ≤ 0.06 µg/mL | <=0.06 ug ml-1 | ≤ 0.06 µg/mL | <=0.06 ug ml-1 | – | ≤ 0.06 µg/mL | ≤ 0.06 µg/mL | ≤ 0.06 µg/mL | 1 µg/mL | ≤ 0.06 µg/mL | ≤ 0.06 µg/mL | ≤ 0.06 µg/mL | ≤ 0.06 µg/mL | ≤ 0.06 µg/mL | ≤ 0.06 µg/mL | ≤ 0.06 µg/mL | ≤ 0.06 µg/mL | ≤ 0.06 µg/mL
